Among the data in patent US20250171437A1 (Agios Pharmaceuticals,Inc., priority 2022, published 2025) are AC50 values, retold here.

The target in the first experiment is T1, human PAH with the R408W mutation (A375 R408W cells) (Homo sapiens, UniProt P00439, R408W).
T1 construct: expressed in transfected cells
T1 sequence (P00439 1-452 R408W): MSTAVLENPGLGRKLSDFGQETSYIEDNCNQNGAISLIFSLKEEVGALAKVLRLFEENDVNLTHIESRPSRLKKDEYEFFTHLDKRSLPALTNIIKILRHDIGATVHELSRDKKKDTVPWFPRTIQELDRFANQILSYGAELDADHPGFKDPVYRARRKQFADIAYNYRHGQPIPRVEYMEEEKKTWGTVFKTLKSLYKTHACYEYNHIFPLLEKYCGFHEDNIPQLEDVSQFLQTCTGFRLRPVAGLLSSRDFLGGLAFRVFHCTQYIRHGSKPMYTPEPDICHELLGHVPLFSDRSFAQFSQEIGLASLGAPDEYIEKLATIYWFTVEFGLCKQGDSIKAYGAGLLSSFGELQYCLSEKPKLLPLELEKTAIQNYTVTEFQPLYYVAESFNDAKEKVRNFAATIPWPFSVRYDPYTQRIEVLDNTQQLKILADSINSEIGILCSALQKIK
Nature of the experiment: Cell Based Phenylalanine Flux Assay. To be noted: A375 R408W cells; 24 hrs with compound, then 20 μM sepiapterin and 800 μM 13C9,15N-Phenylalanine for 4 hours; 13C-Tyrosine by LC-MS; average where tested multiple times. An outline of the steps:
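Phenylalanine-to-tyrosine flux is measured in A375 cells carrying stable human R408W PAH. After 24 h compound exposure, 13C9,15N-Phe (800 μM) with sepiapterin (20 μM) is supplied for 4 h and media 13C-Tyr is read by LC-MS; AC50s are binned.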
The term AC50 denotes the concentration at which the activity in the assay is half-maximal. In the case of `COc1cccc2oc([C@@H]3c4nc[nH]c4CCN3C(=O)c3nc(C(F)F)nn3C)nc12` [Example 601, (S)-(3-(difluoromethyl)-1-methyl-1H-1,2,4-triazol-5-yl)(4-(4-methoxybenzo[d]oxazol-2-yl)-6,7-dihydro-1H-imidazo[4,5-c]pyridin-5(4H)-yl)methanone], the AC50 was 500 to 1000 nM.
On the same count and under the same terms, with `Cc1cccc2nc([C@@H]3c4nc[nH]c4CCN3C(=O)c3oc(C(C)(C)O)nc3C(F)F)oc12` [Example 392, (S)-(4-(difluoromethyl)-2-(2-hydroxypropan-2-yl)oxazol-5-yl)(4-(7-methylbenzo[d]oxazol-2-yl)-6,7-dihydro-1H-imidazo[4,5-c]pyridin-5(4H)-yl)methanone] the figure was not above 500 nM.
With `Cc1ccc2oc([C@H]3c4nc[nH]c4CCN3C(=O)c3ccnn3C(F)F)nc2c1` [Example 314, (R)-(1-(difluoromethyl)-1H-pyrazol-5-yl)(4-(5-methylbenzo[d]oxazol-2-yl)-6,7-dihydro-1H-imidazo[4,5-c]pyridin-5(4H)-yl)methanone], the AC50 fell in the range of 500 to 1000 nM.
Regarding `O=C(c1oc(-c2cnccn2)nc1C(F)F)N1CCc2[nH]cnc2[C@@H]1c1nc2cccc(F)c2o1` [Example 694, (R)-(4-(difluoromethyl)-2-(pyrazin-2-yl)oxazol-5-yl)(4-(7-fluorobenzo[d]oxazol-2-yl)-6,7-dihydro-1H-imidazo[4,5-c]pyridin-5(4H)-yl)methanone], the AC50 was not above 500 nM.
Still for that read-out and setting: with `COc1cccc2nc([C@H]3c4nc[nH]c4CCN3C(=O)c3cc(C(F)F)nn3C)oc12` [Example 778, (R)-(3-(difluoromethyl)-1-methyl-1H-pyrazol-5-yl)(4-(7-methoxybenzo[d]oxazol-2-yl)-6,7-dihydro-1H-imidazo[4,5-c]pyridin-5(4H)-yl)methanone] the figure was 500 to 1000 nM; with `Cc1nc([C@@H](C)O)oc1C(=O)N1CCc2[nH]cnc2[C@@H]1c1nc2cccc(F)c2o1` [Example 218, ((R)-4-(7-fluorobenzo[d]oxazol-2-yl)-6,7-dihydro-1H-imidazo[4,5-c]pyridin-5(4H)-yl)(2-((R)-1-hydroxyethyl)-4-methyloxazol-5-yl)methanone], 1000 to 5000 nM.
On the same count and under the same terms, with `O=C(c1oc(-c2ccncn2)nc1C(F)F)N1CCc2[nH]cnc2[C@@H]1c1nc2cccc(F)c2o1` [Example 774, (R)-(4-(difluoromethyl)-2-(pyrimidin-4-yl)oxazol-5-yl)(4-(7-fluorobenzo[d]oxazol-2-yl)-6,7-dihydro-1H-imidazo[4,5-c]pyridin-5(4H)-yl)methanone] the figure was not above 500 nM; with `COCc1ccc2c(C(=O)N3CCc4[nH]cnc4[C@H]3c3nc4cccc(F)c4o3)cnn2c1` [Example 265, (S)-(4-(7-fluorobenzo[d]oxazol-2-yl)-6,7-dihydro-1H-imidazo[4,5-c]pyridin-5(4H)-yl)(6-(methoxymethyl)pyrazolo[1,5-a]pyridin-3-yl)methanone], 500 to 1000 nM.
Consider `Cc1cc(F)cc2nc([C@H]3c4nc[nH]c4CCN3C(=O)c3ocnc3C(F)F)oc12` [Example 658, (R)-(4-(difluoromethyl)oxazol-5-yl)(4-(5-fluoro-7-methylbenzo[d]oxazol-2-yl)-6,7-dihydro-1H-imidazo[4,5-c]pyridin-5(4H)-yl)methanone], for which the concentration at half-maximal activity (AC50) is not above 500 nM.
`Cc1ccc2nc([C@H]3c4nc[nH]c4CCN3C(=O)c3ccnn3C(F)F)oc2c1` [Example 318, (R)-(1-(difluoromethyl)-1H-pyrazol-5-yl)(4-(6-methylbenzo[d]oxazol-2-yl)-6,7-dihydro-1H-imidazo[4,5-c]pyridin-5(4H)-yl)methanone]: the AC50 was 500 to 1000 nM.
As to `Cc1ccc2oc([C@@H]3c4nc[nH]c4CCN3C(=O)c3oc(-c4cn(C)cn4)nc3C(F)F)nc2c1` [Example 784, (S)-(4-(difluoromethyl)-2-(1-methyl-1H-imidazol-4-yl)oxazol-5-yl)(4-(5-methylbenzo[d]oxazol-2-yl)-6,7-dihydro-1H-imidazo[4,5-c]pyridin-5(4H)-yl)methanone], the AC50 is not above 500 nM.
Still for that read-out and setting: under `CC(C)(C)c1nnc(C(=O)N2CCc3[nH]cnc3[C@H]2c2nc3c(F)ccc(F)c3o2)o1` [Example 852, (S)-(5-(tert-butyl)-1,3,4-oxadiazol-2-yl)(4-(4,7-difluorobenzo[d]oxazol-2-yl)-6,7-dihydro-1H-imidazo[4,5-c]pyridin-5(4H)-yl)methanone] stands not above 500 nM; under `CC(C)(O)c1nc(C(F)F)c(C(=O)N2CCc3[nH]cnc3[C@@H]2c2nc3c(C(F)(F)F)cccc3o2)o1` [Example 464, (R)-(4-(difluoromethyl)-2-(2-hydroxypropan-2-yl)oxazol-5-yl)(4-(4-(trifluoromethyl)benzo[d]oxazol-2-yl)-6,7-dihydro-1H-imidazo[4,5-c]pyridin-5(4H)-yl)methanone], 500 to 1000 nM.
Regarding `COc1cccc2oc([C@@H]3c4nc[nH]c4CCN3C(=O)c3ccnn3C(F)F)nc12` [Example 603, (S)-(1-(difluoromethyl)-1H-pyrazol-5-yl)(4-(4-methoxybenzo[d]oxazol-2-yl)-6,7-dihydro-1H-imidazo[4,5-c]pyridin-5(4H)-yl)methanone], the concentration at half-maximal activity (AC50) was not above 500 nM.
Take `O=C(c1ccnn1C(F)(F)F)N1CCc2[nH]cnc2[C@H]1c1nc2cc(F)ccc2o1` [Example 261, (S)-(4-(5-fluorobenzo[d]oxazol-2-yl)-6,7-dihydro-1H-imidazo[4,5-c]pyridin-5(4H)-yl)(1-(trifluoromethyl)-1H-pyrazol-5-yl)methanone]: the AC50 is 500 to 1000 nM.
On the same count and under the same terms, with `O=C(c1oc(C2CC2)nc1C(F)F)N1CCc2[nH]cnc2[C@H]1c1nc2cc(F)ccc2o1` [Example 53, (S)-(2-cyclopropyl-4-(difluoromethyl)oxazol-5-yl)(4-(5-fluorobenzo[d]oxazol-2-yl)-6,7-dihydro-1H-imidazo[4,5-c]pyridin-5(4H)-yl)methanone] the figure was not above 500 nM; with `O=C(c1cnn2cc(N3CCC(F)CC3)ccc12)N1CCc2[nH]cnc2[C@@H]1c1nc2cccc(F)c2o1` [Example 370, (R)-(4-(7-fluorobenzo[d]oxazol-2-yl)-6,7-dihydro-1H-imidazo[4,5-c]pyridin-5(4H)-yl)(6-(4-fluoropiperidin-1-yl)pyrazolo[1,5-a]pyridin-3-yl)methanone], 1000 to 5000 nM; with `O=C(c1cnn2cc(N3CCOCC3)ccc12)N1CCc2[nH]cnc2[C@H]1c1nc2cccc(F)c2o1` [Example 365, (S)-(4-(7-fluorobenzo[d]oxazol-2-yl)-6,7-dihydro-1H-imidazo[4,5-c]pyridin-5(4H)-yl)(6-morpholinopyrazolo[1,5-a]pyridin-3-yl)methanone], 500 to 1000 nM.
`Cc1nc([C@@H](C)O)oc1C(=O)N1CCc2[nH]cnc2[C@H]1c1nc2cc(F)ccc2o1` [Example 135, ((S)-4-(5-fluorobenzo[d]oxazol-2-yl)-6,7-dihydro-1H-imidazo[4,5-c]pyridin-5(4H)-yl)(2-((R)-1-hydroxyethyl)-4-methyloxazol-5-yl)methanone]: the AC50 was in the range of 1000 to 5000 nM.

Still in this experiment, the particulars now being: A375 cells expressing R408W PAH; 24 hrs with compound, then 20 μM sepiapterin and 800 μM 13C9,15N-Phenylalanine for 4 hours; 13C-Tyrosine by LC-MS; average where tested multiple times.
For `COC(=O)Nc1ccc2c(C(=O)N3CCc4[nH]cnc4C3c3nc4cc(F)ccc4o3)cnn2c1` (centres unmarked), the AC50 was not below 5000 nM.
Still for that read-out and setting: with `CCOC(=O)N1CCN(c2ccc3c(C(=O)N4CCc5[nH]cnc5C4c4nc5cc(F)ccc5o4)cnn3c2)CC1` (centres unmarked) the figure was not below 5000 nM; with `O=C(c1cn[nH]c1C(F)F)N1CCc2[nH]cnc2C1c1nc2cc(F)ccc2o1` (centres unmarked), not below 5000 nM; with `O=C(c1cnco1)N1CCc2[nH]cnc2C1c1nc2cc(F)ccc2o1` (centres unmarked), 1000 to 5000 nM.
